Source: the NIST ThermoML archive (doi:10.1016/j.fluid.2019.04.019)
Numbers after ± are expanded uncertainties.

Columns and labels:
[1] = Molar enthalpy of transition or fusion; conditions: Crystal; DSC
[2] = Crystal

| SMILES | Molar enthalpy of transition or fusion [1] [kcal/mol] | Normal melting temperature ([2]; DTA) [°C] | Normal melting temperature ([2]; visual observation) [°C] |
| --- | --- | --- | --- |
| CCCC[n+]1ccccc1.[Cl-] [1-butylpyridinium chloride] | 6.25 ± 0.182 | 132.2 ± 0.5 |  |
| CCC[N+]1(C)CCCCC1.[Cl-] [1-methyl-1-propyl-piperidinium chloride] |  |  | 225.2 ± 0.5 |
| CC(O)C[N+](C)(C)C.[Cl-] (stereo not drawn) [beta.-methylcholine chloride] | 1.61 ± 0.0693 | 169 ± 0.5 |  |
| C[N+](C)(C)CCO.[Br-] [choline bromide] |  |  | 308.5 ± 0.5 |
| C[N+](C)(CCO)CCO.[Cl-] [diethanoldimethylammonium chloride] |  |  | 290.6 ± 0.5 |
| CC[N+](CC)(CC)CC.[Cl-] [tetraethylammonium chloride] |  |  | 262.2 ± 0.5 |
| C[N+](C)(C)C.[Cl-] [tetramethylammonium chloride] |  |  | 341.6 ± 0.5 |
| C[N+](C)(C)Cc1ccccc1.[Cl-] [trimethylbenzylammonium chloride] |  |  | 236.1 ± 0.5 |
